Calls of active or inactive are those of the source.
Legend:
[1] = viability loss in Vero cells – cytotoxicity control for Vif-APOBEC3G degradation inhibitor project, dose response (AID 1117358); assay type: functional; conditions: Vero
[2] = Luminescence Cell-Based Dose Retest to Confirm Inhibitors of Cancer Stem Cells. [Related pubchem assays (depositor defined):AID2717, AID2721]; assay type: functional; conditions: Homo sapiens
[3] = viability of PTEN-deleted HCT116 cells – cell-based, HCT116 PTEN knockout, dose response (AID 1047); assay type: functional;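 further: HCT116 colon tumor cells with PTEN knocked out; cells exposed to compound for 60 hours before readout; potency for loss of cell viability measured by luminescence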
[4] = viability of HCT116 lacking mutant beta-catenin – cell-based, human colon tumor, dose response (AID 1045); assay type: functional;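 further: HCT116 colon tumor cells with beta catenin knocked out; cells exposed to compound for 60 hours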
[5] = target: T1, Apoptotic protease-activating factor 1 (Homo sapiens, UniProt O14727); assay type: functional
T1 sequence (O14727 whole entry): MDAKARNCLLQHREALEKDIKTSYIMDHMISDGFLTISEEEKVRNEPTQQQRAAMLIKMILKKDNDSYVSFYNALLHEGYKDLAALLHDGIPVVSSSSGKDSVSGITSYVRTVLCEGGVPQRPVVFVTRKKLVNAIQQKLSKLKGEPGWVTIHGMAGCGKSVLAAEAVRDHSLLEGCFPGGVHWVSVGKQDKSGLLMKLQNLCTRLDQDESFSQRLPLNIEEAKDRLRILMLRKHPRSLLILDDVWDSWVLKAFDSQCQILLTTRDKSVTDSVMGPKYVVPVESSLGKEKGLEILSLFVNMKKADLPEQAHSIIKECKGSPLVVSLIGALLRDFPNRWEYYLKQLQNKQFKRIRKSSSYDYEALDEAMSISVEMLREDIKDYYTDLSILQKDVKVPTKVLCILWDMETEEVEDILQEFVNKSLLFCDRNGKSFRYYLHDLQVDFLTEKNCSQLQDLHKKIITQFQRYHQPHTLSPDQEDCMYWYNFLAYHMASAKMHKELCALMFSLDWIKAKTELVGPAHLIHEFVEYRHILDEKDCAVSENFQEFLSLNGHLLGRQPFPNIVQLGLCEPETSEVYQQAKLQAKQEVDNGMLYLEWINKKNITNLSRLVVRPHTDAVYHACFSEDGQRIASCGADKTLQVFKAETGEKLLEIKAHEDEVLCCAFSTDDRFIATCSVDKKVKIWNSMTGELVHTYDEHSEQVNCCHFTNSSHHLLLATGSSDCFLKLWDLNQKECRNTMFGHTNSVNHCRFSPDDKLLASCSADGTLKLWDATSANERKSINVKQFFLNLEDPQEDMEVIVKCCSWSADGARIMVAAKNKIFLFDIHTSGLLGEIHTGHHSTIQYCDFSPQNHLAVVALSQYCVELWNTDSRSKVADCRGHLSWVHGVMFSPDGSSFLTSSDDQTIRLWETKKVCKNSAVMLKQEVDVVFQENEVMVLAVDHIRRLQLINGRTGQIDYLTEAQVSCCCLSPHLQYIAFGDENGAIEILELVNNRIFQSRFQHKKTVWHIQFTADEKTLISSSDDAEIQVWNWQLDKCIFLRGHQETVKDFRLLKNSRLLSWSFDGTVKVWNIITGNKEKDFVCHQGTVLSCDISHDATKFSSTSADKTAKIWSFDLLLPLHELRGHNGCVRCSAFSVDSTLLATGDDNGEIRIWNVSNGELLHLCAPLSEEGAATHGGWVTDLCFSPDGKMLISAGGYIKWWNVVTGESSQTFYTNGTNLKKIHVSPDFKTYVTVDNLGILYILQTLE

[6] = target: T2, Histone-lysine N-methyltransferase NSD2 (Homo sapiens, UniProt O96028); assay type: biochemical
T2 sequence (O96028 whole entry): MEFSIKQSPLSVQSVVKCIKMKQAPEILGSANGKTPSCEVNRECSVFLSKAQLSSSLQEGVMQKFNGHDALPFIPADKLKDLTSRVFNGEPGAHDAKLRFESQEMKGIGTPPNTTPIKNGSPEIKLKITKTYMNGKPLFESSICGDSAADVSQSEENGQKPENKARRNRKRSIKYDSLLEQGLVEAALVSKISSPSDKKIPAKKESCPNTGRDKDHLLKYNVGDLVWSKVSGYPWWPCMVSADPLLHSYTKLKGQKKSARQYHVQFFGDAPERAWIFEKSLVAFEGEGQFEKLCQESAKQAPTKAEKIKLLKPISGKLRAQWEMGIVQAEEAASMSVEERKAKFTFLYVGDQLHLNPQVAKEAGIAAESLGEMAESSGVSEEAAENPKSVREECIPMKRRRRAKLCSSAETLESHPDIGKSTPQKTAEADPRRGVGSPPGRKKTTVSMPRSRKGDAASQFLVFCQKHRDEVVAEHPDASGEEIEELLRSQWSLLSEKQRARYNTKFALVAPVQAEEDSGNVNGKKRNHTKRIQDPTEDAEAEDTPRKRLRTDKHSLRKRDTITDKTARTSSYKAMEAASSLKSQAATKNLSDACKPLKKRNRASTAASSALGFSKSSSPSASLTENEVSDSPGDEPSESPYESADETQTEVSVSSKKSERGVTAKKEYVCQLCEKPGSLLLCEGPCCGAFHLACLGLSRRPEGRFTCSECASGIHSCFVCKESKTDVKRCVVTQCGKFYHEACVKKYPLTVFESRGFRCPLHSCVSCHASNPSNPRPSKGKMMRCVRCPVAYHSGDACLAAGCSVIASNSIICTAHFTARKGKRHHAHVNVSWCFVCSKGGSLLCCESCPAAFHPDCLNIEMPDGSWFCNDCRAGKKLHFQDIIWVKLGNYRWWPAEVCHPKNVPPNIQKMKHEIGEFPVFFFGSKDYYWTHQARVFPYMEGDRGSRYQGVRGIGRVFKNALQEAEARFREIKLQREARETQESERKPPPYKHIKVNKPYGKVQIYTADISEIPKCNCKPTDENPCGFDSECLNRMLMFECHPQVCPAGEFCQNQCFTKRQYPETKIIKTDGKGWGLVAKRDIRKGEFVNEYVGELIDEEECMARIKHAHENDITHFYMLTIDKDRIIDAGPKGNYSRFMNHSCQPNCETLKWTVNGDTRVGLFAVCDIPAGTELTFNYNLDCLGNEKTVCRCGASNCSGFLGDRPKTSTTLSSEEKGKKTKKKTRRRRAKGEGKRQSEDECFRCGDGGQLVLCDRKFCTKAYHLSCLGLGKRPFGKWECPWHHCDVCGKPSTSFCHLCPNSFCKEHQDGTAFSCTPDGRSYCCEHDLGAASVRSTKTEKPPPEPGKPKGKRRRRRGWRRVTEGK

[7] = target: T3, RNA-editing ligase 1, mitochondrial (Trypanosoma brucei brucei, UniProt P86926); test: inhibition of trypanosome RNA editing ligase – biochemical, fluorescence, Trypanosoma brucei, dose response (AID 1117295); assay type: functional
T3 sequence (P86926 whole entry): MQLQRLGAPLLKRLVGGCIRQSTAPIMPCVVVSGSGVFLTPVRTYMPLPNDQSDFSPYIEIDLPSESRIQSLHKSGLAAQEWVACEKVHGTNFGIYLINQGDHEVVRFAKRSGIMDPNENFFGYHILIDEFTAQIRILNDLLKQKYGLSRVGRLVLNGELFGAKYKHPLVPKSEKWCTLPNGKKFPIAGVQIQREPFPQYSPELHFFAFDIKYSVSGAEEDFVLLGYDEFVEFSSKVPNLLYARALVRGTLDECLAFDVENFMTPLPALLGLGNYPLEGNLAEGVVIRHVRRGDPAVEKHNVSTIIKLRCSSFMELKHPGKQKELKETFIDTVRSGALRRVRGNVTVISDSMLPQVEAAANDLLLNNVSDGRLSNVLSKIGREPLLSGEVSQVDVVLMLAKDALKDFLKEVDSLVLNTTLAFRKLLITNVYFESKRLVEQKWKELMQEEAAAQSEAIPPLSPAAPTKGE

[8] = target: T4, Dual specificity protein phosphatase 6 (Rattus norvegicus, UniProt Q64346); test: inhibition of rat DUSP6 enzyme activity – biochemical, in vitro, primary screen (AID 425)
T4 sequence (Q64346 whole entry): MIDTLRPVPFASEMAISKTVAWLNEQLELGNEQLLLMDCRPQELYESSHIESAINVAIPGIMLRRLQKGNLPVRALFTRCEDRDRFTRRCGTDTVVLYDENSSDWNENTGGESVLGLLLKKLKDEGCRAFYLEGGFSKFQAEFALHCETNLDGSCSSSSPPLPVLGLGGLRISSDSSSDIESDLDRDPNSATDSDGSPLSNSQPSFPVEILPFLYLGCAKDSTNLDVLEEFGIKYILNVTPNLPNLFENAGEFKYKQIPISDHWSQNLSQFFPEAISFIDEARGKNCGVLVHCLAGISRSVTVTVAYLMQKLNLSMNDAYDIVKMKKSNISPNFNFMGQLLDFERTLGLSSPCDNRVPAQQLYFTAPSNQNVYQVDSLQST

[9] = IC50 of Artemis nuclease activity blockers – biochemical, fluorescence intensity, dose response (AID 720701); assay type: functional;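 further: Artemis endonuclease enzyme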
INS1 = test: INS-1E survival protection against cytokine death – cell-based, luminescence, retest, dose response (AID 449756); assay type: functional; conditions: Rattus norvegicus;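 further: cell death triggered by IL-1 beta plus TNF-alpha plus IFN-gamma mixture; protective hits raise ATP signal compared with cytokine alone wells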
Vero = test: mammalian cell viability reduction – secondary assay, cytotoxicity control for West Nile virus antiviral project, dose response (AID 1650); assay type: functional; conditions: Chlorocebus sabaeus
Streptokinase A = target: T5, Streptokinase A (Streptococcus pyogenes serotype M1, UniProt P10520); test: viability-normalized secreted streptokinase activity reduction – plasminogen activation absorbance, OD405, dose response (AID 1914); assay type: functional, Streptococcus pyogenes M1 GAS;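 further: secreted streptokinase activity via plasminogen activation per viability signal from cell pellet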
T5 sequence (P10520 whole entry): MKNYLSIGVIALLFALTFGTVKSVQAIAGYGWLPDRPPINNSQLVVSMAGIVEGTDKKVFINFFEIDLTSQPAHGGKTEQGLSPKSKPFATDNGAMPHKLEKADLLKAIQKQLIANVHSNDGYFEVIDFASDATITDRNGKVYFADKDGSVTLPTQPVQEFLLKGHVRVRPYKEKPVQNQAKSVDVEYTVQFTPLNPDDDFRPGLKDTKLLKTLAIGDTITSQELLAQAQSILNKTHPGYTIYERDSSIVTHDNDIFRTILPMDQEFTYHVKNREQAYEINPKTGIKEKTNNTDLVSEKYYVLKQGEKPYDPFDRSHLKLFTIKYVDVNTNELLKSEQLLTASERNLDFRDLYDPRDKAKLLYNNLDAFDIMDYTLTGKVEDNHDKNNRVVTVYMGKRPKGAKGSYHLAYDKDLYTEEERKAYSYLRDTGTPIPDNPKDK

Streptococcus = test: GAS UMAA2166 growth inhibition – luminescence, BacTiterGlo, counter-screen for streptokinase expression inhibitor project, dose response (AID 1915); assay type: functional, organism-based;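 further: potency for reduction of bacterial viability or growth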
[10] = target: Sphingosine 1-phosphate receptor 2 (Homo sapiens, UniProt O95136); test: Dose Response Cell Based Assay for Antagonists of the S1P2 Receptor. [Related pubchem assays: 856, 736 ]; assay type: functional
Sphingosine 1-phosphate receptor 2, sequence (O95136 whole entry): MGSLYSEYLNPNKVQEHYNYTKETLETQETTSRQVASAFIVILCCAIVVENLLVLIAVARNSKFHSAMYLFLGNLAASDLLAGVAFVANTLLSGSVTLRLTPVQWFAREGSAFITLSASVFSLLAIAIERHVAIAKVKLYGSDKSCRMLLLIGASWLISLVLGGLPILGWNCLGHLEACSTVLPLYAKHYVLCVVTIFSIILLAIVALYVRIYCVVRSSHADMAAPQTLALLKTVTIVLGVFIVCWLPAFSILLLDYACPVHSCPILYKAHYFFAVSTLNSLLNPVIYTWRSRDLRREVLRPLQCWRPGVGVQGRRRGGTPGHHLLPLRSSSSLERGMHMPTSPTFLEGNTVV

[11] = tested on: Streptococcus sp. 'group A'; test: Streptococcus pyogenes SK(-)GAS viability under kanamycin – luminescence, BacTiterGlo, confirmation, counter-screen for streptokinase expression inhibitor project, dose response (AID 1900); assay type: functional, organism-based
Estrogen receptor beta [12] = target: T6, Estrogen receptor beta (Homo sapiens, UniProt Q92731);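 further: recombinant ER-beta bound to coactivator SRC1 peptide in presence of estradiol agonist; inhibitors block coactivator peptide binding and lower the FRET signal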
T6 sequence (Q92731 whole entry): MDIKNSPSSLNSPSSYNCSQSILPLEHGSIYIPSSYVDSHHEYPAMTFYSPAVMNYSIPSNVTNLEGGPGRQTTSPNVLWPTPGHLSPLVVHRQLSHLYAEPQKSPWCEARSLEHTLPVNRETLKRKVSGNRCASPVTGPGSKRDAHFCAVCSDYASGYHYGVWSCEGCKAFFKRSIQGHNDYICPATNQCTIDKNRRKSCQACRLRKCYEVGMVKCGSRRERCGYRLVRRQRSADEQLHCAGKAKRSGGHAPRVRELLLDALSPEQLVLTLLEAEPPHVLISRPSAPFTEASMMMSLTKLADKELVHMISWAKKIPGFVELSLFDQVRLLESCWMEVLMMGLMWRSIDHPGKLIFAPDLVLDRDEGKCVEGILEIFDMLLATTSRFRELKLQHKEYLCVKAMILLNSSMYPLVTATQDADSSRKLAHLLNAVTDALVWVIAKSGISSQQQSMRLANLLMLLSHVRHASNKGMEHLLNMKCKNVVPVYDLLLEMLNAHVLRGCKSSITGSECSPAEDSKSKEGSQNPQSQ

Estrogen receptor = target: T7, Estrogen receptor (Homo sapiens, UniProt P03372);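 further: potency for inhibiting coactivator peptide recruitment to the receptor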
T7 sequence (P03372 whole entry): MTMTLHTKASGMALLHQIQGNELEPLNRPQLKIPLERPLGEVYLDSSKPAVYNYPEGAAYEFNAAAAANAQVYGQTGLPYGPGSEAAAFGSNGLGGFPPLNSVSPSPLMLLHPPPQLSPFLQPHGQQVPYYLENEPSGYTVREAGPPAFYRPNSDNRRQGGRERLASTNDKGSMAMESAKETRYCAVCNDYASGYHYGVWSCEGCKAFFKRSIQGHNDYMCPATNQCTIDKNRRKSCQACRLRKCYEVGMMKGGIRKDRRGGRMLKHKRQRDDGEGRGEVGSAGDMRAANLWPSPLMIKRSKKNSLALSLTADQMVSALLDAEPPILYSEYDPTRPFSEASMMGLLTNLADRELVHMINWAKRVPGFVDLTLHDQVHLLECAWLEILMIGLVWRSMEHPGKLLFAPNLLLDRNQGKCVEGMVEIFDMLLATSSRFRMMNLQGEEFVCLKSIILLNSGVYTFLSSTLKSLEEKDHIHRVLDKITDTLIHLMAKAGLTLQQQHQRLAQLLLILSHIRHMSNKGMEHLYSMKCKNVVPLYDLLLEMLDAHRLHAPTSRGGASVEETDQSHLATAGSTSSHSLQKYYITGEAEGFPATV

Estrogen receptor beta [13] = target: T6, Estrogen receptor beta; test: blockers of SRC-3 recruitment to ERβ – biochemical, ELISA, streptavidin-HRP readout, orthogonal assay, confirmation (AID 1060)

COC(=O)c1ccc(COc2ccccc2/C=C(\C#N)C(=O)Nc2c(C)cc(C)cc2C)cc1
CC50 [1]: 15.9 µM (active)
AC50 [2]: 1.28 µM (active)
EC50 [3]: 5.83 µM (active)
EC50 [4]: 5.33 µM (active)

CCCCNC(=O)c1c(N)n(CCCOC)c2nc3ccccc3nc12
IC50 [5]: 27.7 µM (active)
AC50 [6]: 8.05 µM (active)
IC50 [7]: 17.9 µM (inactive)
IC50 [8]: > 100 µM (not active)

Cc1cc(/C=N/n2cnnc2)c(C)n1-c1ccc(OCc2ccc(Cl)cc2)cc1
IC50 [9]: 15.7 µM (active)
AC50 (INS1): 1.15 µM (active)
CC50 (Vero): 1.02 µM (active)
EC50 (Streptokinase A): 12.9 µM (active)
EC50 (Streptococcus): 12.3 µM (active)
IC50 [10]: 49.3 µM (not active)
EC50 [11]: 5.41 µM (active)

CCOC(=O)C1=c2/c(=C/c3ccccc3OC)c(N)c(C#N)n2C(=O)C(c2ccccc2OC)S1 (stereo not drawn)
IC50 (Estrogen receptor beta [12]): > 50 µM (not active)
IC50 (Estrogen receptor): 9.8 µM (active)
IC50 (Estrogen receptor beta [13]): 78.5 µM (not active)

From ChEMBL document CHEMBL1201862, “PubChem BioAssay data set” (2004)
